US7531663B2, “3-guanidinocarbonyl-1-heteroaryl-indole derivatives, preparation process, their use as medicaments, and pharmaceutical compositions comprising them” (sanofi-aventis Deutschland GmbH, priority 2003, dated 2009)
Where a name gives a salt, the structure may show the parent alone.

What was measured:
NHE1 = molecular target: T1, NHE1 (Homo sapiens, UniProt P19634); assay: NHE inhibition FLIPR test (intracellular pH recovery, BCECF) in transfected LAP-1 cell lines; assay type: cell-based; details: transfected LAP-1 cell line expressing NHE1 subtype, BCECF fluorescence, pHi recovery after acidification
T1 construct: expressed in transfected cells; host or cells: LAP-1 (parental line without endogenous NHE activity), G418-selected transfectants
T1 sequence (P19634 whole entry): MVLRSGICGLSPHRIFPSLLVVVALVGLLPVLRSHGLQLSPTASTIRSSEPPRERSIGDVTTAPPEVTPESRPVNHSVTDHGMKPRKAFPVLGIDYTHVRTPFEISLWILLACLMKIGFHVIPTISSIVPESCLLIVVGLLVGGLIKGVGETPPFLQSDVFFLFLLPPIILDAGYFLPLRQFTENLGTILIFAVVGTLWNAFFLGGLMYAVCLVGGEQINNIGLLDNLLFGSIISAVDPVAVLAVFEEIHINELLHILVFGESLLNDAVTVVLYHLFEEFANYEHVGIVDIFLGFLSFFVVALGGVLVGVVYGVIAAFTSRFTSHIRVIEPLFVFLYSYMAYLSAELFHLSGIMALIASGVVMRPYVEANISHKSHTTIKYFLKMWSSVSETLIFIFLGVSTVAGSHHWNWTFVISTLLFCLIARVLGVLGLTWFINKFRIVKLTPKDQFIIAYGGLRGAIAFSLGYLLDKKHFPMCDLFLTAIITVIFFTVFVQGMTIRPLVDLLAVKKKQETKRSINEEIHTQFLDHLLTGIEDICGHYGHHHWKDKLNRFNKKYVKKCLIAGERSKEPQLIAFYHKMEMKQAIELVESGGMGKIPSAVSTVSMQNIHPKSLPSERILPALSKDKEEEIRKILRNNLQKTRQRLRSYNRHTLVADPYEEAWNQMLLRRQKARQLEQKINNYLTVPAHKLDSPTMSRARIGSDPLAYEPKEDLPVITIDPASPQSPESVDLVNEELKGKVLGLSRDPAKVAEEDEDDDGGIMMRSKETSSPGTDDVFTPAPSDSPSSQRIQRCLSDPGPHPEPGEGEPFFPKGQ
Procedure: The NHE inhibitory activities (IC50 values) of the compounds according to the invention were determined by a FLIPR test.
The test is performed in the FLIPR (Fluorescent Imaging Plate Reader) equipped with clear-bottomed and black-walled 96-well microtitration plates.
The growth medium for the transfected cells (Iscove+10% foetal calf serum) also comprises G418 as selection antibiotic to ensure the presence of transfected sequences.
The actual test begins by eliminating the growth medium and adding 100 μl of loading buffer per well (5 μM of BCECF-AM [2′,7′-bis(2-carboxyethyl)-5-(6)-carboxyfluoresceine acetoxymethyl ester] in 20 mM of NH4Cl 115 mM of choline chloride, 1 mM of CaCl2, 5 mM of KCl, 20 mM of HEPES and 5 mM of glucose; pH 7.4 (adjusted with KOH). The cells are then incubated for 20 minutes at 37° C. This incubation results in the loading of the fluorescent dye into the cells, the fluorescence intensity of which depends on the pHi, and on the NH4Cl, which results in a slight basification of the cells.
The precursor BCECF-AM, a non-fluorescent dye, is, as an ester, capable of crossing the membrane. The actual dye, which is incapable of crossing the membrane, is released inside the cell by esterases.
After this 20-minute incubation, the loading buffer, which comprises NH4Cl and free BCECF-AM, is removed by washing three times in the cell washing device (Tecan Columbus), each wash being performed with 400 μl of washing buffer (133.8 mM of choline chloride, 4.7 mM of KCl, 1.25 mM of MgCl2, 1.25 mM of CaCl2, 0.97 mM of K2HPO4, 0.23 mM of KH2PO4, 5 mM of HEPES and 5 mM of glucose; pH 7.4 (adjusted with KOH)). The residual volume remaining in the wells is 90 μl (possibly between 50 and 125 μl). This washing step removes the free BCECF-AM and results in an intracellular acidification (pHi of 6.3-6.4) due to the removal of the external ammonium ions.
As the equilibrium of the intracellular ammonium with the aqueous ammonia and the protons, by removal of the extracellular ammonium and by the subsequent immediate crossing of the aqueous ammonia across the cell membrane, is disrupted, the washing process results in intracellular protons remaining, which is the cause of the intracellular acidification. This acidification can result finally in the death of the cells if it lasts long enough. It is important here for the washing buffer to be free of sodium (<1 mM), otherwise the extracellular sodium ions would result in an immediate increase in the pHi on account of the activity of the cloned NHE isoforms. It is also important for all the buffers used (loading buffer, washing buffer and regeneration buffer) not to contain any HCO3-ions, otherwise the presence of bicarbonate would result in the activation of bicarbonate-dependent systems that disrupt the pHi regulation, which systems are contained in the LAP-1 parental cell line.
The microtiter plates containing acidified cells are then transferred (up to 20 minutes after the acidification) to the FLIPR. In the FLIPR, the intracellular fluorescent dye is activated with light of a wavelength of 488 nm, which is generated by an argon laser, and the measuring parameters (laser power, illumination time and diaphragm of the […] camera integrated into the FLIPR) are chosen such that the average value of the fluorescent signal per well is between 30,000 and 35,000 relative fluorescence units.
The actual measurement in the FLIPR starts with a photograph being taken by the CCD camera every two seconds under software control. After 10 seconds, the increase in the intracellular pH is initiated by adding 90 μl of regeneration buffer (133.8 mM of NaCl, 4.7 mM of KCl, 1.25 mM of MgCl2, 1.25 mM of CaCl2, 0.97 mM of K2HPO4, 0.23 mM of KH2PO4, 10 mM of HEPES and 5 mM of glucose; pH 7.4 (adjusted with NaOH)) using a 96-well pipette device incorporated into the FLIPR. Some wells, to which is added pure regeneration buffer, serve as positive controls (100% NHE activity). […]

Compound | melting point | IC50 (NHE1)
Cl.NC(N)=NC(=O)c1cn(-c2nccc3ccccc23)c2ccccc12 [Example 1, 3-Guanidinocarbonyl-1-(isoquinol-1-yl)-1H-indole hydrochloride] | 262 °C | 14 nM
Cc1ccc2c(c1)c(C(=O)N=C(N)N)cn2-c1ccc2ccccc2n1.Cl [Example 5, 3-Guanidinocarbonyl-5-methyl-1-(quinol-2-yl)-1H-indole hydrochloride] | 268 °C | 4980 nM
Cl.NC(N)=NC(=O)c1cn(-c2ccc3ncccc3c2)c2ccccc12 [Example 8, 3-Guanidinocarbonyl-1-(quinol-6-yl)-1H-indole hydrochloride] | 268 °C | 143 nM
NC(N)=NC(=O)c1cn(-c2ccc3ccccc3n2)c2ccccc12 [Example 3, 3-Guanidinocarbonyl-1-(quinol-2-yl)-1H-indole hydrochloride] |  | 535 nM
Cc1ccc2c(c1)c(C(=O)N=C(N)N)cn2-c1nccc2ccccc12.Cl [Example 4, 3-Guanidinocarbonyl-1-(isoquinol-1-yl)-5-methyl-1H-indole hydrochloride] | 268 °C | 200 nM
Cl.NC(N)=NC(=O)c1cn(-c2ccnc3ccccc23)c2ccccc12 [Example 2, 3-Guanidinocarbonyl-1-(quinol-4-yl)-1H-indole hydrochloride] | 270 °C | 4 nM
Cc1ccc2c(c1)c(C(=O)N=C(N)N)cn2-c1ccnc2ccccc12.Cl [Example 6, 3-Guanidinocarbonyl-5-methyl-1-(quinol-4-yl)-1H-indole hydrochloride] | 268 °C | 206 nM
Cl.NC(N)=NC(=O)c1cn(-c2cnc3ccccc3c2)c2ccccc12 [Example 7, 3-Guanidinocarbonyl-1-(quinol-3-yl)-1H-indole hydrochloride] | 268 °C | 433 nM

The next lines start with the values.

melting point | IC50 (NHE1) | Compound
 | 76 nM | N=C(N)NC(=O)c1cn(-c2ccnc3ccccc23)c2cc(F)ccc12 [Example 12, 6-Fluoro-3-guanidinocarbonyl-1-(quinol-4-yl)-1H-indole hydrochloride]
 | 2460 nM | N=C(N)NC(=O)c1cn(-c2ccnc3ccccc23)c2ccc(Cl)cc12 [Example 14, 5-Chloro-3-guanidinocarbonyl-1-(quinolin-4-yl)-1H-indole]
 | 1670 nM | COc1ccc2c(c1)c(C(=O)N=C(N)N)c(C)n2-c1cnnc2ccccc12 [Example 16, N-[1-(Cinnolin-4-yl)-5-methoxy-2-meth-yl-1H-indole-3-carbonyl]-guani-dine trifluoroacetate]
 | 47 nM | COc1ccc2c(C(=O)NC(=N)N)cn(-c3ccnc4ccccc34)c2c1 [Example 11, 3-Guanidinocarbonyl-6-methoxy-1-(quinol-4-yl)-1H-indole dihydrochloride]
 | 39 nM | N=C(N)NC(=O)c1cn(-c2ccnc3ccccc23)c2ccc(F)cc12 [Example 13, 5-Fluoro-3-guanidinocarbonyl-1-(quinol-4-yl)-1H-indole hydrochloride]
 | 1870 nM | N=C(N)NC(=O)c1cn(-c2cc3ccccc3cn2)c2ccccc12 [Example 10, 3-Guanidinocarbonyl-1-(isoquinol-3-yl)-1H-indole hydrochloride]
172 °C | 275 nM | N=C(N)NC(=O)c1cn(-c2cccc3cccnc23)c2ccccc12 [Example 9, 3-Guanidinocarbonyl-1-(quinol-8-yl)-1H-indole]
 | 1.5 nM | NC(N)=NC(=O)c1cn(-c2cnnc3ccccc23)c2ccccc12 [Example 15, N-[1-(Cinnolin-4-yl)-1H-indole-3-carbonyl]-guanidine trifluoroacetate]
